Source: the supplement of paper PMC10627819

How the values were obtained:
[1] = tested on: S. aureus Newman; experiment: fitness (endpoint OD595 vs no drug) (fraction); higher = more growth
In short: (§1)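 Each well of a 384-well plate received 30 µl of culture at OD595 0.01, or 55 µl for S. pneumoniae. TSB, LB Lennox or CY served as media at 37 °C. OD595 was taken every 30 min for 14 h and corrected by subtracting the first reading. Fitness is the optical density at stationary-phase entry divided by the robust mean of no-drug controls, capped at 1.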

[2] = tested on: S. pneumoniae D39V; experiment: as above
In short: as §1

[3] = tested on: B. subtilis 168; experiment: as above
In short: as §1

[4] = tested on: S. aureus DSM 20231; experiment: Bliss interaction score (quartile over a dose matrix) (fitness difference); higher = more antagonism (negative = synergy)
In short: (§2)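 Quartiles summarise the Bliss score over technical, biological and donor/recipient replicates, where the score is observed minus expected fitness under a product model. Expected fitness uses single-drug values inferred from combination data. Fitness is OD595 at entry into stationary phase over the plate's robust no-drug mean, capped at 1.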

[5] = tested on: S. aureus Newman; experiment: as above
In short: as §2

[6] = tested on: S. pneumoniae D39V; experiment: as above
In short: as §2

[7] = tested on: B. subtilis 168; experiment: as above
In short: as §2
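Wherever Bliss interaction score (quartile over a dose matrix) is given: first quartile when negative (synergy) and third quartile when positive (antagonism).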

Cc1cc(NS(=O)(=O)c2ccc(N)cc2)no1 [Sulfamethoxazol] + CN(C)c1cc(NC(=O)CNC(C)(C)C)c(O)c2c1C[C@H]1C[C@H]3[C@H](N(C)C)C(O)=C(C(N)=O)C(=O)[C@@]3(O)C(O)=C1C2=O [Tigecycline]
fitness
Details	first compound 1 µg/mL	first compound 2 µg/mL	first compound 4 µg/mL
[1], partner 0.039 µg/mL	0.991	0.996	≥ 1
[1], partner 0.078 µg/mL	0.982	0.999	0.966
[1], partner 0.156 µg/mL	0.986	0.983	≥ 1
[2], partner 0.65 µg/mL	0.944	0.961	0.937
[2], partner 1.3 µg/mL	0.952	0.932	0.937
[2], partner 2.6 µg/mL	0.936	0.937	0.95
[3], partner 0.039 µg/mL	0.917	0.92	≥ 1
[3], partner 0.078 µg/mL	0.903	0.921	0.97
[3], partner 0.156 µg/mL	0.911	0.897	0.982

fitness, one replicate
Details	partner 0.039 µg/mL	partner 0.078 µg/mL	partner 0.125 µg/mL	partner 0.156 µg/mL	partner 0.25 µg/mL	partner 0.5 µg/mL
[1], first compound 8 µg/mL	0.856	0.865	–	0.934	–	–
[3], first compound 0.5 µg/mL	≥ 1	0.989	–	0.959	–	–
[3], first compound 1 µg/mL	–	–	0.963	–	0.923	0.903
[3], first compound 2 µg/mL	–	–	0.942	–	0.88	0.859
[3], first compound 4 µg/mL	–	–	0.922	–	0.899	0.925

Details	Bliss interaction score
[4]	0.108
[5]	0.0399
[6]	0.0567
[7]	0.0319

C[n+]1ccc(-c2cc[n+](C)cc2)cc1 [Paraquat] + CN(C)c1cc(NC(=O)CNC(C)(C)C)c(O)c2c1C[C@H]1C[C@H]3[C@H](N(C)C)C(O)=C(C(N)=O)C(=O)[C@@]3(O)C(O)=C1C2=O [Tigecycline]
fitness
Details	first compound 1.25 µg/mL	first compound 1.5 µg/mL	first compound 2.5 µg/mL	first compound 3 µg/mL	first compound 5 µg/mL	first compound 6 µg/mL
[1], partner 0.039 µg/mL	0.905	–	0.929	–	0.881	–
[1], partner 0.078 µg/mL	≥ 1	–	0.952	–	0.934	–
[1], partner 0.156 µg/mL	0.975	–	0.925	–	0.898	–
[2], partner 0.65 µg/mL	–	0.974	–	0.967	–	0.939
[2], partner 1.3 µg/mL	–	0.956	–	0.986	–	0.951
[2], partner 2.6 µg/mL	–	0.923	–	0.9	–	0.898
[3], partner 0.039 µg/mL	0.982	–	0.975	–	0.88	–
[3], partner 0.078 µg/mL	0.919	–	0.957	–	0.86	–
[3], partner 0.156 µg/mL	0.94	–	0.93	–	0.84	–

fitness, [3], one replicate
Details	first compound 1.25 µg/mL	first compound 2.5 µg/mL	first compound 5 µg/mL
partner 0.125 µg/mL	≥ 1	≥ 1	≥ 1
partner 0.25 µg/mL	≥ 1	0.93	0.941
partner 0.5 µg/mL	0.998	0.973	0.893

Details	Bliss interaction score
[4]	0.0449
[5]	0.0431
[6]	-0.0568
[7]	-0.0331

CNC(C)C1CCC(N)C(OC2C(N)CC(N)C(OC3OCC(C)(O)C(NC)C3O)C2O)O1 (stereo not given) [Gentamicin] + CN1C2=CC=CC=C2N=C3C1=CC=CC3=O [Pyocyanin]
fitness, [1], one replicate, main component drawn
Details	first compound 0.375 µg/mL	first compound 0.75 µg/mL	first compound 1.5 µg/mL
partner 1.25 µg/mL	0.76	0.775	0.774
partner 2.5 µg/mL	0.791	0.776	0.783
partner 5 µg/mL	0.439	0.463	0.421

main component drawn
Details	fitness
[1], first compound 0.5 µg/mL, partner 1.25 µg/mL	0.908
[1], first compound 0.5 µg/mL, partner 2.5 µg/mL	0.873
[1], first compound 1 µg/mL, partner 1.25 µg/mL	0.942
[1], first compound 1 µg/mL, partner 2.5 µg/mL	0.909
[1], first compound 1 µg/mL, partner 5 µg/mL	0.645
[1], first compound 2 µg/mL, partner 1.25 µg/mL	0.917
[1], first compound 2 µg/mL, partner 2.5 µg/mL	0.903
[1], first compound 2 µg/mL, partner 5 µg/mL	0.545
[2], first compound 2 µg/mL, partner 0.325 µg/mL	0.962
[2], first compound 2 µg/mL, partner 0.65 µg/mL	0.964
[2], first compound 2 µg/mL, partner 1.3 µg/mL	0.6
[2], first compound 4 µg/mL, partner 0.325 µg/mL	≥ 1
[2], first compound 4 µg/mL, partner 0.65 µg/mL	0.959
[2], first compound 4 µg/mL, partner 1.3 µg/mL	0.599
[2], first compound 8 µg/mL, partner 0.325 µg/mL	0.94
[2], first compound 8 µg/mL, partner 0.65 µg/mL	0.865
[2], first compound 8 µg/mL, partner 1.3 µg/mL	0.531
[3], first compound 0.0625 µg/mL, partner 1.25 µg/mL	0.893
[3], first compound 0.0625 µg/mL, partner 2.5 µg/mL	0.802
[3], first compound 0.0625 µg/mL, partner 5 µg/mL	0.758
[3], first compound 0.125 µg/mL, partner 5 µg/mL	0.559
[3], first compound 0.25 µg/mL, partner 1.25 µg/mL	0.0424
[3], first compound 0.25 µg/mL, partner 2.5 µg/mL	0.038
[3], first compound 0.25 µg/mL, partner 5 µg/mL	0.0455

main component drawn
Details	Bliss interaction score
[4]	0.0622
[5]	0.111
[6]	-0.113
[7]	0.129

CC1=C(C(=O)O)N2C(=O)[C@@H](NC(=O)[C@H](N)c3ccccc3)[C@H]2SC1 [Cephalexin] + Cc1onc(-c2ccccc2)c1C(=O)N[C@@H]1C(=O)N2[C@@H]1SC(C)(C)[C@@H]2C(=O)O [Oxacillin]
Details	fitness
[1], first compound 0.25 µg/mL, partner 0.0156 µg/mL	0.803
[1], first compound 0.25 µg/mL, partner 0.0312 µg/mL	0.761
[1], first compound 0.25 µg/mL, partner 0.0625 µg/mL	0.727
[1], first compound 0.5 µg/mL, partner 0.0156 µg/mL	0.768
[1], first compound 0.5 µg/mL, partner 0.0312 µg/mL	0.749
[1], first compound 0.5 µg/mL, partner 0.0625 µg/mL	0.675
[1], first compound 1 µg/mL, partner 0.0156 µg/mL	0.721
[1], first compound 1 µg/mL, partner 0.0312 µg/mL	0.72
[1], first compound 1 µg/mL, partner 0.0625 µg/mL	0.651
[2], first compound 1 µg/mL, partner 0.02 µg/mL	0.171
[2], first compound 1 µg/mL, partner 0.04 µg/mL	0.0188
[2], first compound 2 µg/mL, partner 0.01 µg/mL	0.1
[2], first compound 2 µg/mL, partner 0.02 µg/mL	0.044
[2], first compound 2 µg/mL, partner 0.04 µg/mL	0.0313
[2], first compound 4 µg/mL, partner 0.01 µg/mL	0.0222
[2], first compound 4 µg/mL, partner 0.02 µg/mL	0.0259
[2], first compound 4 µg/mL, partner 0.04 µg/mL	0.0275
[3], first compound 0.125 µg/mL, partner 0.002 µg/mL	0.975
[3], first compound 0.125 µg/mL, partner 0.004 µg/mL	0.879
[3], first compound 0.125 µg/mL, partner 0.008 µg/mL	0.896
[3], first compound 0.25 µg/mL, partner 0.002 µg/mL	0.911
[3], first compound 0.25 µg/mL, partner 0.004 µg/mL	0.948
[3], first compound 0.25 µg/mL, partner 0.008 µg/mL	0.879
[3], first compound 0.5 µg/mL, partner 0.002 µg/mL	0.925
[3], first compound 0.5 µg/mL, partner 0.004 µg/mL	0.961
[3], first compound 0.5 µg/mL, partner 0.008 µg/mL	0.97

fitness, one replicate
Details	first compound 0.125 µg/mL	first compound 0.25 µg/mL	first compound 0.5 µg/mL	first compound 1 µg/mL
[2], partner 0.01 µg/mL	≥ 1	0.989	0.99	–
[2], partner 0.02 µg/mL	0.92	0.897	0.886	–
[2], partner 0.04 µg/mL	0.175	0.196	0.124	–
[3], partner 0.075 µg/mL	–	0.65	0.551	0.563
[3], partner 0.15 µg/mL	–	0.0401	0.0556	0.0643
[3], partner 0.3 µg/mL	–	0.0429	0.0316	0.051

Details	Bliss interaction score
[4]	0.0592
[5]	0.0632
[6]	-0.216
[7]	0.0457

CNC(C)C1CCC(N)C(OC2C(N)CC(N)C(OC3OCC(C)(O)C(NC)C3O)C2O)O1 (stereo not given) [Gentamicin] + CCN(CC)CCOC(=O)c1ccc(N)cc1 [Procaine]
fitness, [1], one replicate, main component drawn
Details	first compound 0.375 µg/mL	first compound 0.75 µg/mL	first compound 1.5 µg/mL
partner 85.5 µg/mL	≥ 1	≥ 1	≥ 1
partner 171 µg/mL	≥ 1	≥ 1	0.984
partner 342 µg/mL	≥ 1	≥ 1	≥ 1

fitness, main component drawn
Details	partner 85.5 µg/mL	partner 171 µg/mL	partner 342 µg/mL
[1], first compound 0.5 µg/mL	–	0.975	0.925
[1], first compound 1 µg/mL	–	≥ 1	0.99
[1], first compound 2 µg/mL	–	≥ 1	0.944
[2], first compound 2 µg/mL	≥ 1	0.981	0.968
[2], first compound 4 µg/mL	≥ 1	0.977	0.944
[2], first compound 8 µg/mL	0.938	0.965	0.935
[3], first compound 0.0625 µg/mL	0.89	0.872	0.871
[3], first compound 0.25 µg/mL	0.0903	0.0388	0.109

main component drawn
Details	Bliss interaction score
[4]	0.0726
[5]	0.0373
[6]	0.099
[7]	-0.101
